A short description of data set [1]: Aqueous kinetic solubility in PBS pH 7.4. The format is physicochemical. To be noted: phosphate buffered saline (PBS); aqueous kinetic solubility from 10 mM DMSO solution in PBS pH 7.4; target concentration 250 μM (final DMSO 2.5%). The protocol: 1. Aqueous kinetic solubility.
30 µL aliquots of 10 mM DMSO stock solution of the test compound were incubated in Phosphate
Buffered Saline (PBS) at pH 7.4 at 25°C for 24h. After centrifugation the dissolved compound in the
supernatant was quantified by LC-MS/MS.
Aqueous kinetic solubility was determined by UV quantification at
215 nm. […]

The target of the next data set is T1, NKCC1 (Homo sapiens, UniProt P55011).
T1 construct: host or cells: HEK293
T1 sequence (P55011 1-1212): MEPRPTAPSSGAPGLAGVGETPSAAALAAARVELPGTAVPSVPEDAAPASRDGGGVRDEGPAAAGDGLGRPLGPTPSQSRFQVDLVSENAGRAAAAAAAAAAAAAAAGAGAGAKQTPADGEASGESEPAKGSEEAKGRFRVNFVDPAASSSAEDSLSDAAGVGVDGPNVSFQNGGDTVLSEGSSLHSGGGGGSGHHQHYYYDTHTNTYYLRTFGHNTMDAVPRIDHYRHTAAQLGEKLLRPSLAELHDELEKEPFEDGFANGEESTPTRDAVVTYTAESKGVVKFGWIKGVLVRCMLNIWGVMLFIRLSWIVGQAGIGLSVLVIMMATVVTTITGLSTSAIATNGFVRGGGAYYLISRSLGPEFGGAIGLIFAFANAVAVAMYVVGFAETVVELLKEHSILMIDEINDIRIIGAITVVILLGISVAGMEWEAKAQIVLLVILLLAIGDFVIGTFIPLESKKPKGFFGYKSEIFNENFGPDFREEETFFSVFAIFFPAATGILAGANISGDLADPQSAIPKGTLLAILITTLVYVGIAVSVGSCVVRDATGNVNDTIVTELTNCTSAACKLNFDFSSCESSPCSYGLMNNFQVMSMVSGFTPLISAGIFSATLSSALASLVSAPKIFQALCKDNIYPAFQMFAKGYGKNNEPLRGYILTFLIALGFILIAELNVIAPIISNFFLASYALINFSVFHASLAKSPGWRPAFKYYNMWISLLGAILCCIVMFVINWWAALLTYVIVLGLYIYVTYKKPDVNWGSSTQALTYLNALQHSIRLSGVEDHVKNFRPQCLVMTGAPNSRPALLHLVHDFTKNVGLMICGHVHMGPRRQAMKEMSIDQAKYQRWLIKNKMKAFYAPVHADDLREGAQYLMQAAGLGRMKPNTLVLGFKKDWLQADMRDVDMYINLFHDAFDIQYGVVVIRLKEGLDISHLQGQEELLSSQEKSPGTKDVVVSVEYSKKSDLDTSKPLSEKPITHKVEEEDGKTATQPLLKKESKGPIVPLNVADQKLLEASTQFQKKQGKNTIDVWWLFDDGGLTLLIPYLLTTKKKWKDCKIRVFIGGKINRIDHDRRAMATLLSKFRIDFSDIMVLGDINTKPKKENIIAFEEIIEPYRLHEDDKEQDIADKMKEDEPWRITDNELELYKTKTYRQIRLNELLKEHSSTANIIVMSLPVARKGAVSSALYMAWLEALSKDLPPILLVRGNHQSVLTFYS
The experiment in a line: Cl- influx assay in NKCC1-transfected HEK293 cells. Format: cell-based. The following applies: for inhibition at 10 µM: HEK293, read-out: Inhibition 10 μM Cl- influx (%); for inhibition at 100 µM: HEK293, read-out: Inhibition 100 μM Cl- influx (%); for Inhibition 10 μM Cl- influx (%) / Inhibition 100 μM Cl- influx (%): NKCC1-transfected HEK293 cells. How it is done:
HEK293 cells were cultured in Dulbecco’s modified Eagle’s medium (DMEM) supplemented with 10% fetal bovine serum, 1% L-glutamine, 100 U/mL penicillin, and 100 μg/mL streptomycin and maintained at 37 °C in a 5% CO2 humidified atmosphere. To assess NKCC1 and NKCC2 activity (Cl^– influx assay), 3 million HEK cells were plated in a 10 cm cell-culture dish and transfected with a transfection mixture comprising 5 mL of DMEM, 4 mL of Opti-MEM, 8 μg of DNA plasmid coding for NKCC1 (PRK-NKCC1 obtained from Medical Research Council and the University of Dundee), NKCC2 (OriGene plasmid #RC216145) subcloned in PRK5 plasmid, or mock control (empty vector), together with 8 μg of a plasmid coding for the Cl^–-sensitive variant of the membrane-targeted fluorescent protein YFP, mbYFPQS (Addgene plasmid #80742),[53] and 32 μL of Lipofectamin 2000. To assess KCC2 activity (Tl influx assay), cells were transfected with 8 μg of KCC2[54] subcloned in the PRK5 plasmid or mock control (empty vector) and 16 μL of Lipofectamin 2000. After 4 h, the cells were collected and plated in 96-well black-walled, clear-bottomed plates at a density of 2.5 × 10^4. After 48 h, cells were used for the Cl^– or Tl influx assays. All reagents were purchased from Life Technologies, unless otherwise specified.
Transfected cells were treated with 10 μM or 100 μM bumetanide (as positive controls), DMSO (as the negative control), or with each of our compounds in 100 μL/well of a Cl^–-free hypotonic solution (67.5 mM Na^+ gluconate, 2.5 mM K^+ gluconate, 15 mM HEPES pH 7.4, 50 mM glucose, 1 mM Na2HPO4, 1 mM NaH2PO4, 1 mM MgSO4, and 1 mM CaSO4). After 30 min of incubation, plates were loaded into a Victor 3V (PerkinElmer) multiplate reader equipped with an automatic liquid injector system, and fluorescence of Cl^–-sensitive mbYFPQS was recorded with excitation at 485 nm and emission at 535 nm. For each well, fluorescence was first recorded for 20 s of the baseline and for 60 s after delivery of a NaCl concentrated solution (74 mM final concentration in the assay well). Fluorescence of Cl^–-sensitive mbYFPQS is inversely correlated to the intracellular Cl^– concentration;[53] therefore, chloride influx into the cells determined a decrease in mbYFPQS fluorescence. To represent the fluorescent traces in time, we normalized the fluorescence value for each time point to the average of the fluorescence value of the first 20 s of the baseline (ΔF/F0). To quantify the average effects as represented by the bar plots, we expressed the decrease in fluorescence upon NaCl application as the average of the last 10 s of ΔF/F0 normalized traces. Moreover, for each experiment, to account for the contribution of Cl^– changes that were dependent on transporters/exchangers other than NKCC1 or NKCC2, we subtracted the value of the last 10 s of ΔF/F0 normalized traces obtained from mock-transfected cells (either control or treated) from the respective ΔF/F0 value obtained from the cells transfected with NKCC1 or NKCC2. We then presented in the figures all the data as a percentage of the fluorescence decrease versus the value of the control DMSO.

A short description of data set [2]: In vitro metabolic stability in mouse liver microsomes. The following applies: tissue homogenate, pH 7.4. How it is done:
1. Aqueous kinetic solubility. […]
3. In vitro mouse microsomial stability. […]
microsomes (Sekisui Xenotech, LCC), 0.1M Tris-HCl buffer (pH 7.4), and 10% DMSO. The final […]
After pre-incubation, the cofactors (NADPH, G6P, G6PDH, MgCl2 pre-dissolved in 0.1M Tris-HCl) were added to the incubation mixture and the incubation was continued at 37 °C for 1h. At each time point (0, 5, 15, 30, 60 min), 30µL of incubation mixture was diluted with 200 µL cold acetonitile spiked with 200 nM of warfarin as internal standard, followed by centrifugation at 3500 g for 30 min. The supernatant was further diluted with H2O (1:1) for analysis.
An aliquot of 200 µl of the supernatant was removed, and the concentration of the test compound was […]
quantified by LC-MS/MS. The percentage of the test compound remaining at each time point relative […]
to t=0 was calculated. The half-lives (t½) were determined by a one-phase decay equation using a […]
non-linear regression of compound concentration vs time.

Consider 14 molecules from publication PMC8311653, “Design, Synthesis, In Vitro and In Vivo Characterization of Selective NKCC1 Inhibitors for the Treatment of Core Symptoms in Down Syndrome” (Journal of Medicinal Chemistry, 2021).

Converted amounts (≈) assume the structure as drawn. “Also recorded” adds a separate entry of the source.

In data set [1], `CCCCCCNc1ccc([N+](=O)[O-])cc1S(=O)(=O)NC` [Compound 3, 2-(Hexylamino)-N-methyl-5-nitro-benzenesulfonamide] registered a solubility at 24 h of 1 µM (≈ 0.315 µg/mL). Besides, at NKCC1, the inhibition at 10 µM was 6.4 ± 3.4% and the inhibition at 100 µM worked out at 29.4 ± 2.8%. For the same molecule, the half-life at 5 μM in data set [2] was less than 5 min.

For the molecule `CNS(=O)(=O)c1cc([N+](=O)[O-])ccc1NCCC(C)(C)C` [Compound 4, 2-(3,3-Dimethylbutylamino)-N-methyl-5-nitro-benzenesulfonamide], the concentration in solution in data set [1] (solubility at 24 h) came to 3 µM (≈ 0.946 µg/mL). On NKCC1, the inhibition at 10 µM is 17.7 ± 3.9% and the inhibition at 100 µM is 28.7 ± 4.4%. This molecule also came in with a half-life at 5 μM in data set [2] of 6 min.

As to `CCCCNc1ccc([N+](=O)[O-])cc1S(N)(=O)=O` [Compound 5, 2-(Butylamino)-5-nitro-benzenesulfonamide], the concentration in solution in data set [1] (solubility at 24 h) came to 85 µM (≈ 23.2 µg/mL). At NKCC1, the “Inhibition 10 μM Cl- influx (%)” value is listed as “Inactive” and the inhibition at 100 µM amounted to 4.7 ± 13.3%. The molecule further came in with a half-life at 5 μM in data set [2] of 6 min.

In turn, `CCCCCCNc1ccc([N+](=O)[O-])cc1S(N)(=O)=O` [Compound 6, 2-(Hexylamino)-5-nitro-benzenesulfonamide] had a solubility at 24 h in data set [1] of 6 µM (≈ 1.81 µg/mL). For the same molecule, at NKCC1, the “Inhibition 10 μM Cl- influx (%)” value is listed as “no inhibitory activity; also recorded: Inactive” and the inhibition at 100 µM came out at 3.8 ± 5.6%. The same molecule yielded a half-life at 5 μM in data set [2] of less than 5 min.

For the molecule `CCCCCCCCNc1ccc([N+](=O)[O-])cc1S(N)(=O)=O` [Compound 7, 5-Nitro-2-(octylamino)benzenesulfonamide], the solubility at 24 h in data set [1] is less than 1 µM. On NKCC1, the inhibition at 10 µM stood at 0.3 ± 2.9% and the inhibition at 100 µM came to 5.8 ± 6.8%. The molecule also showed a half-life at 5 μM in data set [2] of less than 5 min.

As for `CCCCCCNc1ccc([N+](=O)[O-])cc1S(=O)(=O)N(C)C` [Compound 12, 2-(Hexylamino)-N,N-dimethyl-5-nitro-benzenesulfonamide], the solubility at 24 h in data set [1] stood at 1 µM (≈ 0.329 µg/mL). On NKCC1, the “Inhibition 10 μM Cl- influx (%)” value is listed as “Inactive” and the inhibition at 100 µM came to 4.9 ± 6.8%. The same molecule returned a half-life at 5 μM in data set [2] of less than 5 min.

With `CCCCCCNc1ccc(C(=O)O)cc1S(N)(=O)=O` [Compound 16, 4-(Hexylamino)-3-sulfamoyl-benzoic Acid], in data set [1], the solubility at 24 h worked out at 238 µM (≈ 71.5 µg/mL). Besides, on NKCC1, the “Inhibition 10 μM Cl- influx (%)” value is listed as “Inactive” and the inhibition at 100 µM came to 4.9 ± 3.7%. The half-life at 5 μM in data set [2] is more than 60 min.

On to `CCCCCCCCNc1ccc(C(=O)O)cc1S(N)(=O)=O` [Compound 17, 4-(Octylamino)-3-sulfamoyl-benzoic Acid], for which the solubility at 24 h in data set [1] is more than 250 µM. In addition, on NKCC1, the “Inhibition 10 μM Cl- influx (%)” value is “Inactive” and the inhibition at 100 µM stood at 24 ± 8.5%. Besides, the half-life at 5 μM in data set [2] is 18 min.

Consider `CCCCCCNc1ccc(C(=O)O)cc1S(=O)(=O)NC` [Compound 20, 4-(Hexylamino)-3-(methylsulfamoyl)benzoic Acid], for which the concentration in solution in data set [1] (solubility at 24 h) came to 247 µM (≈ 77.7 µg/mL). For the same molecule, at NKCC1, the “Inhibition 10 μM Cl- influx (%)” value was “Inactive” and the “Inhibition 100 μM Cl- influx (%)” value is on record as “Inactive”. This molecule also gave a half-life at 5 μM in data set [2] of 29 min.

As for `CCCCCCCCNc1ccc(C(=O)O)cc1S(=O)(=O)NC` [Compound 21, 3-(-N-Methylsulfamoyl)-4-(octylamino)benzoic Acid], in data set [1], the concentration in solution (solubility at 24 h) came to 53 µM (≈ 18.2 µg/mL). Moreover, at NKCC1, the inhibition at 10 µM is 16.2 ± 4.8% and the inhibition at 100 µM came to 20.1 ± 14.7%. Moreover, the half-life at 5 μM in data set [2] came out at 12 min.

In data set [1], `CCCCCCNc1ccc(C(=O)O)cc1S(=O)(=O)N(C)C` [Compound 24, 3-(-N,N-Dimethylsulfamoyl)-4-(hexylamino)benzoic Acid] gave a solubility at 24 h of 243 µM (≈ 79.8 µg/mL). Also, at NKCC1, the “Inhibition 10 μM Cl- influx (%)” value is “Inactive” and the inhibition at 100 µM came out at 19.8 ± 5.2%. Besides, the half-life at 5 μM in data set [2] stood at 17 min.

In data set [1], `CCCCCCCCNc1ccc(C(=O)O)cc1S(=O)(=O)N(C)C` [Compound 25, 3-(-N,N-Dimethylsulfamoyl)-4-(octylamino)benzoic Acid] gave a solubility at 24 h of 52 µM (≈ 18.5 µg/mL). Further, on NKCC1, the “Inhibition 10 μM Cl- influx (%)” value was “Inactive” and the inhibition at 100 µM amounted to 70.6 ± 9.2%. The same molecule displayed a half-life at 5 μM in data set [2] of 13 min.

With `CN(C)S(=O)(=O)c1cc(C(=O)O)ccc1NCCC(C)(C)C` [Compound 26, 4-(-N-3,3-Dimethylbutylamino)-3-(dimethylsulfamoyl)benzoic Acid], the solubility at 24 h in data set [1] was more than 250 µM. On NKCC1, the “Inhibition 10 μM Cl- influx (%)” value is on record as “Inactive” and the “Inhibition 100 μM Cl- influx (%)” value was “Inactive”. The molecule further registered a half-life at 5 μM in data set [2] of more than 60 min.

Molecule `CN(C)S(=O)(=O)c1cc(C(=O)O)ccc1NCCCC(F)(F)F` [Compound 27, 3-(-N,N-Dimethylsulfamoyl)-4-(4,4,4-trifluorobutylamino)benzoic Acid] showed a solubility at 24 h in data set [1] of 245 µM (≈ 86.8 µg/mL). Moreover, on NKCC1, the “Inhibition 10 μM Cl- influx (%)” value is “Inactive” and the inhibition at 100 µM was found to be 1.9 ± 5%. This molecule came in with a half-life at 5 μM in data set [2] of more than 60 min.
